pEC50: −log10 of the molar value. Read-outs that look alike come from different tables or passages of the source.
Assays:
[1] = tested on: 3T3 L1 fibroblasts differentiated to adipocytes; assay: Glucose transport activity (14C-2-deoxy-D-glucose uptake); format: cell-based
Procedure: Glucose Transport Activity
3T3 L1 fibroblasts (ATCC) were grown in Dulbecco's modified Eagie's medium (DMEM) with 10% fetal bovine serum (FBS). The cells were plated at a density of 3×10^4 cells/well in 24-well plates. Two days after confluence was reached, the cells were treated for 3 days with […] isobutylmethylxanthine (IBMX), 1 μM dexamethasone, and 1.7 μM insulin. The cells were then transferred to DMEM with 10% fresh bovine serum with 1.7 μM insulin for 2 more days. The cells were maintained in DMEM with 10% FBS for an additional 4 days. Finally the cells were serum starved overnight in 0.1% bovine serum albumin (BSA) in DMEM prior to exposure to the test compounds.
The following day, the medium was replaced with 150 mM NaCl, 1.7 mM KCl, 0.9 mM CaCl2, K2HPO4 (pH 7.4) to which was added either the experimental compounds, or their vehicle (DMSO). Insulin or its vehicle (0.01% BSA) was diluted in the assay buffer (containing test compound or vehicle, respectively) to a final concentration of 5.6 nM. After incubation for 30 min at 37° C., 0.5 μCi/ml of ^14C-2-deoxy-D-glucose was added, and the incubation was continued for additional 30 min at 37° C. The cells were then washed 3 times with ice-cold PBS/20 mM glucose and lysed in 250 μl of lysis buffer (50 mM HEPES pH 7.6, 1% Triton X-100) for 30 min at room temperature. Radioactivity in the lysate was quantified by scintillation counting.
Once ^14C-2-deoxy-D-glucose is transported into the cell it is not released. Glucose transport is, therefore, proportional to the amount of radioactivity in the lysate. The concentration of compound necessary to produce an increase in glucose transport greater than the sum of the standard deviation of the vehicle control plus the largest standard deviation of a test sample (generally 150% of the vehicle control) was recorded as the EC (effective concentration) The results of the glucose transport activity assay are shown in Table 2,

[2] = target: T1, β-kinase domain of the human insulin receptor (CKD) (Homo sapiens, UniProt P06213); assay: 32P-cytoplasmic kinase domain (CKD) autophosphorylation assay; format: biochemical; conditions: 32P incorporated into CKD band, 10 minutes at room temperature, 50 μM ATP; test concentration not given
T1 construct: The complete β-kinase domain of the human insulin receptor (CKD); made in house
T1 sequence (P06213 980-1382 limits assumed): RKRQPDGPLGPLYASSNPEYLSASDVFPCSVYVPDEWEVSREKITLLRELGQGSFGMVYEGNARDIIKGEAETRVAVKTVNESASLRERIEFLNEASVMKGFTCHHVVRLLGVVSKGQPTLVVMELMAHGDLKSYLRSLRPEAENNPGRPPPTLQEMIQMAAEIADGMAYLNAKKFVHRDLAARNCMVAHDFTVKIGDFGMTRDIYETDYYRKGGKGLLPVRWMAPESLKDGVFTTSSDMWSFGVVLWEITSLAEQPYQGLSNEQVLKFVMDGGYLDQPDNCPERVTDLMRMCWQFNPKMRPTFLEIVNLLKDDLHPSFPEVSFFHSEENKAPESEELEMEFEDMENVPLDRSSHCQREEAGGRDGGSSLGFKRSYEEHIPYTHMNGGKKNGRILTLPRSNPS
Procedure: ^32P-cytoplasmic Kinase Domain (CKD) Autophosphorylation Assay
The complete β-kinase domain of the human insulin receptor (CKD) was expressed in, and purified from, baculovirus. CKD (4.0 μg/ml), in a solution of 29 mM HEPES (pH 7.6), 0.05% Triton X-100, 10 mM MgCl2, 2 mM MnCl2 (50 μl final volume), was combined with 50 μM ATP, and 5 μCi ^32P-ATP (3000 Ci/mmol.). A test compound, or the vehicle (DMSO), was added to a final DMSO concentration of 1%. The mixture was incubated for 10 minutes at room temperature. The reaction was terminated by the addition of 10 μl of 200 mM EDTA. A 30 μl volume was removed, mixed with 5 μl of 6× Laemmeli sodium dodecyl sulfate (SDS) treatment buffer, and heated to 95° C. for 5 minutes. A 20 μl aliquot was then run on an SDS-PAGE gel. The radioactivity incorporated into the CKD band is quantified by phosphorimaging of the gel, or scintillation counting of the excised bands.
The potency of a compound for increasing phosphorylation is expressed as a percentage of the vehicle level.

[3] = concentration producing increase in glucose transport generally 150% of the vehicle control, insulin 5.6 nM, read-out: Glucose Transport EC (effective concentration)
[4] = Mus musculus, 3T3-L1, concentration producing increase in glucose transport generally 150% of the vehicle control, insulin 5.6 nM, read-out: Glucose Transport EC (effective concentration)
[5] = Mus musculus, 3T3-L1, no EC recorded, not tested above 3.2 μM, insulin 5.6 nM, read-out: Glucose Transport EC (effective concentration), cells printed NT

Molecule	pEC50 [1, 3]	CKD phosphorylation (percentage of the vehicle level) [2] [%]	pEC50 [1, 4]	other results
3,5-bis[N-(6-sulfonaphthyl)carbamoyl] benzoic acid [Compound 5]	5.00	115.6	–	–
O=C(O)c1ccc(NC(=O)c2cc(C(=O)Nc3ccc(C(=O)O)cc3)cc(C(=O)Nc3ccc(C(=O)O)cc3)c2)cc1 [Compound 1, 4-({3,5-bis[N-(4-carboxyphenyl)carbamoyl]phenyl}carbonylamino)benzoic acid]	–	103.7	5.49	–
O=C(Nc1cccc2cc(S(=O)(=O)O)ccc12)c1cc(C(=O)Nc2cccc3cc(S(=O)(=O)O)ccc23)cc(C(=O)Nc2cccc3cc(S(=O)(=O)O)ccc23)c1 [Compound 2, 5-({3,5-bis[N-(6-sulfonaphthyl)carbamoyl]phenyl}carbonylamino)naphthalene-2-sulfonic acid]	5.49	136.8	–	–
O=C(Nc1ccc(S(=O)(=O)O)cc1)c1cc(C(=O)Nc2ccc(S(=O)(=O)O)cc2)cc(C(=O)Nc2ccc(S(=O)(=O)O)cc2)c1 [Compound 3, 4-({3,5-bis[N-(4-sulfophenyl)carbamoyl]phenyl}carbonylamino)benzenesulfonic acid]	–	98.9	5.49	–
O=C(Nc1cccc2ccc(S(=O)(=O)[O-])cc12)c1cc(C(=O)Nc2cccc3ccc(S(=O)(=O)[O-])cc23)cc(C(=O)Nc2cccc3ccc(S(=O)(=O)[O-])cc23)c1.[Na+].[Na+].[Na+] [Compound 4, 8-({3,5-bis[N-(7-sulfonaphthyl)carbamoyl]phenyl}carbonylamino)naphthalene-2-sulfonic acid]	–	134.9	–	pEC50 ([1]; Mus musculus, 3T3-L1, read-out: Glucose Transport EC (effective concentration)): 5.49
O=C(Nc1cccc2c(S(=O)(=O)O)cccc12)c1cc(C(=O)Nc2cccc3c(S(=O)(=O)O)cccc23)cc(C(=O)Nc2cccc3c(S(=O)(=O)O)cccc23)c1 [Compound 6, 5-({3,5-bis[N-(5-sulfonaphthyl)carbamoyl]phenyl}carbonylamino)naphthalene-sulfonic acid]	5.49	122.7	–	–
O=C(Nc1ccc(S(=O)(=O)O)c2ccccc12)c1cc(C(=O)Nc2ccc(S(=O)(=O)O)c3ccccc23)cc(C(=O)Nc2ccc(S(=O)(=O)O)c3ccccc23)c1 [Compound 7, 4-({3,5-bis[N-(4-sulfonaphthyl)carbamoyl]pheny}carbonylamino)naphthalene-sulfonic acid]	5.49	114.1	–	–
O=C(Nc1ccccc1S(=O)(=O)O)c1cc(C(=O)Nc2ccccc2S(=O)(=O)O)cc(C(=O)Nc2ccccc2S(=O)(=O)O)c1 [Compound 8, 2-({3,5-bis[N-(2-sulfophenyl)carbamoyl]phenyl}carbonylamino)benzenesulfonic acid]	–	113.2	5.49	–
O=C(Nc1ccc2ccccc2c1S(=O)(=O)O)c1cc(C(=O)Nc2ccc3ccccc3c2S(=O)(=O)O)cc(C(=O)Nc2ccc3ccccc3c2S(=O)(=O)O)c1 [Compound 9, 2-({3,5-bis[N-(1-sulfo(2-naphthyl))carbamoyl]phenyl}carbonylamino)naphthalene-sulfonic acid]	–	98.8	–	pEC50 ([1]; no EC recorded, not tested above 3.2 μM, insulin 5.6 nM, read-out: Glucose Transport EC (effective concentration), cells printed NT): < 5.49
O=C(Nc1cccc(S(=O)(=O)O)c1)c1cc(C(=O)Nc2cccc(S(=O)(=O)O)c2)cc(C(=O)Nc2cccc(S(=O)(=O)O)c2)c1 [Compound 10, 3-({3,5-bis[N-(3-sulfophenyl)carbamoyl]phenyl}carbonylamino)benzenesulfonic acid]	–	92.0	5.49	–
O=C(Nc1ccc2cc(S(=O)(=O)O)ccc2c1)c1cc(C(=O)Nc2ccc3cc(S(=O)(=O)O)ccc3c2)cc(C(=O)Nc2ccc3cc(S(=O)(=O)O)ccc3c2)c1 [Compound 11, 6-({3,5-bis[N-(6-sulfo(2-naphthyl))carbamoyl]phenyl}carbonylamino)naphthalene-2-sulfonic acid]	–	148.2	–	pEC50 [1, 5]: < 5.49
O=C(Nc1ccc2c(S(=O)(=O)O)cccc2c1)c1cc(C(=O)Nc2ccc3c(S(=O)(=O)O)cccc3c2)cc(C(=O)Nc2ccc3c(S(=O)(=O)O)cccc3c2)c1 [Compound 12, 6-({3,5-bis[N-(5-sulfo(2-naphthyl))carbamoyl]phenyl}carbonylamino)naphthalene-sulfonic acid]	5.49	136.6	–	–
O=C(Nc1ccc2ccc(S(=O)(=O)O)cc2c1)c1cc(C(=O)Nc2ccc3ccc(S(=O)(=O)O)cc3c2)cc(C(=O)Nc2ccc3ccc(S(=O)(=O)O)cc3c2)c1 [Compound 13, 7-({3,5-bis[N-(7-sulfo(2-naphthyl))carbamoyl]phenyl}carbonylamino)naphthalene-2-sulfonic acid]	–	125.5	–	pEC50 [1, 5]: < 5.49
O=C(Nc1ccccc1C(=O)O)c1cc(C(=O)Nc2ccccc2C(=O)O)cc(C(=O)Nc2ccccc2C(=O)O)c1 [Compound 14, 2-({3,5-bis[N-(2-carboxyphenyl)carbamoyl]phenyl}carbonylamino)benzoic acid]	–	105.3	–	pEC50 [1, 5]: < 5.49
O=C(Nc1cccc2cccc(S(=O)(=O)O)c12)c1cc(C(=O)Nc2cccc3cccc(S(=O)(=O)O)c23)cc(C(=O)Nc2cccc3cccc(S(=O)(=O)O)c23)c1 [Compound 15, 8-({3,5-bis[N-(8-sulfonaphthyl)carbamoyl]phenyl}carbonylamino)naphthalene-sulfonic acid]	5.49	156.0	–	–
COC(=O)c1cc(NC(=O)c2cc(C(=O)Nc3cc(C(=O)OC)cc(C(=O)OC)c3)cc(C(=O)Nc3cc(C(=O)OC)cc(C(=O)OC)c3)c2)cc(C(=O)OC)c1 [Compound 16, methyl 3-[(3,5-bis{N-[3,5-bis(methoxycarbonyl)phenyl]carbamoyl}phenyl)-carbonylamino]-5-(methoxycarbonyl)benzoate]	–	83.7	5.80	–
O=C(O)c1ccc(CNC(=O)c2cc(C(=O)NCc3ccc(C(=O)O)cc3)cc(C(=O)NCc3ccc(C(=O)O)cc3)c2)cc1 [Compound 17, 4-{[(3,5-bis{N-[(4-carboxyphenyl)methyl]carbamoyl}phenyl)carbonylamino]-methyl}benzoic acid]	–	90.4	5.49	–
COC(=O)c1cccc(NC(=O)c2cc(C(=O)Nc3cccc(C(=O)OC)c3)cc(C(=O)Nc3cccc(C(=O)OC)c3)c2)c1 [Compound 18, methyl 3-[(3,5-bis{N-[3-(methoxycarbonyl)phenyl]carbamoyl}phenyl)carbonyl-amino]benzoate]	–	94.54	5.49	–
COC(=O)c1ccc(CNC(=O)c2cc(C(=O)NCc3ccc(C(=O)OC)cc3)cc(C(=O)NCc3ccc(C(=O)OC)cc3)c2)cc1 [Compound 19, methyl 4-({[3,5-bis(N-{[4-(methoxycarbonyl)phenyl]methyl}carbamoyl)phenyl]-carbonylamino}methyl)benzoate]	–	104.0	–	pEC50 [1, 5]: < 5.49
COC(=O)c1ccc(NC(=O)c2cc(C(=O)Nc3ccc(C(=O)OC)cc3)cc(C(=O)Nc3ccc(C(=O)OC)cc3)c2)cc1 [Compound 20, methyl 4-[(3,5-bis{N-[4-(methoxycarbonyl)phenyl]carbamoyl}phenyl)carbonyl-amino]benzoate]	–	77.4	5.49	–
